The structures appear in SMILES notation. Where two headings read alike, the source gives them in different places.

For series [1], the system named is S. epidermidis ATCC 12228. The series is described as follows: Synergy with oxacillin and vancomycin, partial checkerboard broth microdilution. It is filed as cell-based, Staphylococcus epidermidis. The settings on record: S. epidermidis ATCC 12228; for FIC (Oxa) / FIC (Van): MIC antibiotic in combination/MIC antibiotic alone; for MIC Oxa in Combination: oxacillin with the complex at ½ MIC (NH4PF6 250 µg/mL); for MIC Van in Combination: vancomycin with the complex at ½ MIC (NH4PF6 250 µg/mL). For orientation: Broth dilution looks for growth in wells or tubes with falling amounts of substance.

In series [2] the test system is Staphylococcus aureus ATCC 29213. The series is described as follows: Fluorescence microscopy, Hoechst 33258 / propidium iodide viability. It is filed as cell-based. The conditions noted are these: S. aureus ATCC 29213; MIC concentration, 24 h. As to the method: (§1) Staphylococcus aureus ATCC 29213 and Staphylococcus epidermidis ATCC 12228 strains were treated with tested compounds 2a–2d and 3a–3d at a concentration 1 × MIC for 24h, while untreated cells were used as a growth control. After incubation, the cells were harvested and a suspension of 1 × 10^5 cells/mL in PBS was prepared. Following this, 1 µl of the fluorescent dyes Hoechst 33258 and propidium iodide (15 µg/mL each) (Sigma, St. Louis, MO, USA) were added. The obtained mixture was incubated in the dark at room temperature for 15–20 min. After incubation, the cell suspensions, placed on glass slides, were analyzed under an Olympus IX 70 fluorescence microscope (Shinjuku, Tokyo, Japan), using a 360–370 nm UV filter. Photos were taken at 10 × 20 magnification.

For series [3], the system named is Staphylococcus epidermidis ATCC 12228. Described as above. The class given is cell-based. The conditions noted are these: S. epidermidis ATCC 12228; MIC concentration, 24 h. On the procedure:
as §1

Series [4] concerns S. epidermidis ATCC 12228. Briefly: Time-kill test. The conditions noted are these: 1 × MIC. The class given is cell-based, Staphylococcus epidermidis. As to the method: (§2) The time-kill experiments were performed as described previously. Briefly, inocula were prepared in TSB medium (TSB; […] BTL Sp. z o.o., Łódź, Poland). All samples were incubated at 35 °C and 80 rpm for varied time intervals (2, 4, 6, 12, 18, 24, 48h). The percentage of dead cells was calculated according to the growth control by determining the number of living cells (CFU/mL) of each tube using the agar plate count method. Samples were immediately serially diluted ten-fold in 0.01 M phosphate buffered saline (PBS, Bimed Lublin S.A., Lublin, Poland) at pH 7.0 and 10 μL aliquots were spot-inoculated in duplicate onto MHA plates. Agar plates were incubated at 37 °C overnight before determining the viable count. Two independent experiments were carried out.

For series [5], the system named is S. aureus ATCC 29213. Briefly: Synergy with oxacillin and vancomycin, partial checkerboard broth microdilution. The class given is cell-based, Staphylococcus aureus. The conditions noted are these: S. aureus ATCC 29213; for FIC (Oxa) / FIC (Van): MIC antibiotic in combination/MIC antibiotic alone; for MIC Oxa in Combination: oxacillin with the complex at ½ MIC (NH4PF6 250 µg/mL); for MIC Van in Combination: vancomycin with the complex at ½ MIC (NH4PF6 250 µg/mL).

The subject of series [6] is S. epidermidis ATCC 12228. The series is described as follows: Cell lysis (bacteriolysis, OD600). It is filed as cell-based, Staphylococcus epidermidis. The conditions noted are these: 1 × MBC.
Series [7] has as its system S. aureus ATCC 29213. Briefly: Time-kill test. The conditions noted are these: 1 × MIC. It is filed as cell-based, Staphylococcus aureus. On the procedure:
as §2

In series [8] the test system is Supercoiled plasmid pUC57 DNA. The arrangement: method as in PMID 35540189. The conditions noted are these: studied previously; cited from earlier work.
The subject of series [9] is WM-115 melanoma cell line. The settings on record: cited from earlier work.
Setting [10] is: read-out: IC50 (cytotoxicity), WM-115 melanoma cell line.

As to `Cc1cc(C)n(C(N)=S)n1.Cc1ccc(C(C)C)cc1.[Cl-].[Cl][Ru+]` [Compound 2a], in [1], the “FIC (Oxa)” value was 0.06, the “FIC (Van)” value is listed as 0.03, the “MIC Oxa in Combination” value is given as 0.015 µg/mL and the “MIC Van in Combination” value is reported as 0.015 µg/mL. Further, the “Change in bacterial viability (Hoechst 33258 / PI fluorescence)” value (“Change … (Hoechst 33258 / PI fluorescence)” for short) in series [2] is “Less changes in cell survival”. In [3], the “Change … (Hoechst 33258 / PI fluorescence)” value was “Less changes in cell survival”. The “Time-kill: bacteriostatic or bactericidal” value in series [4] is “bacteriostatic”. Besides, in the series on S. aureus ATCC 29213 [5], the “FIC (Oxa)” value worked out at 1, the “FIC (Van)” value worked out at 1, the “MIC Oxa in Combination” value amounted to 0.250 µg/mL and the “MIC Van in Combination” value is given as 0.50 µg/mL. Besides, the “Cell lysis, change of OD600” value in series [6] is listed as “not found to change OD600 values”. The “Time-kill: bacteriostatic or bactericidal” value in the series on S. aureus ATCC 29213 [7] was “bacteriostatic”.

`CCc1cc(CC)n(C(N)=S)n1.Cc1ccc(C(C)C)cc1.[Cl-].[Cl][Ru+]` [Compound 2b]: the “Nicking of DNA Form I into Form II and III” value in series [8] was “nick the DNA Form I into Form II and III”. Moreover, in series [1], the “Correlation with Oxa and Van (synergy), in words” value (shortened to “Correlation with Oxa and Van”) was “synergistic effect in all tested configurations”; the “FIC (Oxa)” value amounted to 0.06; the “FIC (Van)” value worked out at 0.03; the “MIC Oxa in Combination” value is on record as 0.015 µg/mL. For the same molecule, the “MIC Van in Combination” value in [1] stood at 0.015 µg/mL. Further, in [2], the “Change … (Hoechst 33258 / PI fluorescence)” value was “Less changes in cell survival”. Also, the “Change … (Hoechst 33258 / PI fluorescence)” value in [3] is reported as “Less changes in cell survival”. Besides, the “Time-kill: bacteriostatic or bactericidal” value in series [4] was “bacteriostatic”. Also, in the series on S. aureus ATCC 29213 [5], the “Correlation with Oxa and Van” value was “synergistic effects”; the “FIC (Oxa)” value is recorded as 0.5; the “FIC (Van)” value is on record as 0.5; the “MIC Oxa in Combination” value is 0.125 µg/mL. The “MIC Van in Combination” value with S. aureus ATCC 29213 [5] is 0.25 µg/mL. The “Cell lysis, change of OD600” value in series [6] is reported as “not found to change OD600 values”. Besides, in the series on S. aureus ATCC 29213 [7], the “Time-kill: bacteriostatic or bactericidal” value is reported as “bacteriostatic”.

What is called IC50 is the point on the concentration scale where inhibition reaches its midpoint. With `Cc1ccc(C(C)C)cc1.NC(=S)n1nc(-c2ccccc2)cc1O.[Cl-].[Cl][Ru+]` [Compound 2c], the IC50 in series [9] (setting [10]) is 26.7 µM. In series [1], the “FIC (Oxa)” value is 0.25, the “FIC (Van)” value is 1, the “MIC Oxa in Combination” value was found to be 0.06 µg/mL and the “MIC Van in Combination” value was 0.5 µg/mL. The “Change … (Hoechst 33258 / PI fluorescence)” value in series [2] is recorded as “greatest changes in bacterial viability”. In series [3], the “Change … (Hoechst 33258 / PI fluorescence)” value is on record as “greatest changes in bacterial viability”. For the same molecule, the “Time-kill: bacteriostatic or bactericidal” value in series [4] is “bactericidal”. Further, in the series on S. aureus ATCC 29213 [5], the “Correlation with Oxa and Van” value was “synergistic effects”; the “FIC (Oxa)” value turned out to be 0.5; the “FIC (Van)” value is 0.5; the “MIC Oxa in Combination” value worked out at 0.125 µg/mL. Further, the “MIC Van in Combination” value in the series with S. aureus ATCC 29213 [5] amounted to 0.25 µg/mL. Besides, in series [6], the “Cell lysis, change of OD600” value is recorded as “quite moderate decrease in OD600”. Besides, the “Time-kill: bacteriostatic or bactericidal” value in the series on S. aureus ATCC 29213 [7] is recorded as “bacteriostatic”.

Consider `Cc1cc(O)n(C(N)=S)n1.Cc1ccc(C(C)C)cc1.[Cl-].[Cl][Ru+]` [Compound 2d], for which the IC50 in series [9] (setting [10]) is 7.9 µM. Further, the “Nicking of DNA Form I into Form II and III” value in [8] is “nick the DNA Form I into Form II and III”. For the same molecule, in [1], the “FIC (Oxa)” value turned out to be 0.5, the “FIC (Van)” value worked out at 1, the “MIC Oxa in Combination” value was found to be 0.125 µg/mL and the “MIC Van in Combination” value worked out at 0.5 µg/mL. Besides, the “Change … (Hoechst 33258 / PI fluorescence)” value in [2] is recorded as “no significant changes in the viability”. Besides, the “Change … (Hoechst 33258 / PI fluorescence)” value in [3] is reported as “no significant changes in the viability”. Also, in the series on S. aureus ATCC 29213 [5], the “FIC (Oxa)” value stood at 0.5, the “FIC (Van)” value is reported as 1, the “MIC Oxa in Combination” value came to 0.125 µg/mL and the “MIC Van in Combination” value is 0.50 µg/mL.

Turning to `N.N.[Cl][Pt][Cl]` [cisplatin, reference compound], the IC50 in series [9] was 18.2 µM.

Source of the values: PMC8781304, “Arene-Ruthenium(II) Complexes with Carbothiamidopyrazoles as a Potential Alternative for Antibiotic Resistance in Human” (Molecules, 2022).
